Active and inactive are the calls of the source.
What was measured:
[1] = luciferase reporter signal suppression in cells – H4 neuroglioma cells, luminescence, dose response (AID 1990); type: functional, cell-based
HeLa = assay: Cytotoxicity counterscreen assay for transcriptional activators of heat shock protein 70 (Hsp70). [Related pubchem assays: 1203, 1252 ]; type: functional; conditions: Homo sapiens
BJ [2] = assay: BJ-TERT fibroblast viability loss – cell-based, RAS-independent, luminescence, dose response (AID 1933); type: functional; conditions: Homo sapiens
[3] = Luminescence Cell-Based Dose Response HTS to Identify Inhibitors of 5'UTR Stem-Loop Driven Prion Protein mRNA Translation in H4 Neuroglioblastoma Cells. [Related pubchem assays: 1827 (Project Summary), 1813 (Primary HTS)]; type: functional
[4] = alpha-synuclein stem-loop luciferase translation blockers – H4 neuroglioma cells, luminescence, confirmation (AID 1988); type: functional, cell-based
BJ [5] = assay: cells; type: functional, cell-based; conditions: Homo sapiens
[6] = biological target: G-protein coupled receptor 55 (Homo sapiens, UniProt Q9Y2T6); assay: inhibition of LPI-stimulated GPR55 beta-arrestin translocation – imaging, U2OS, beta-arrestin-GFP, LPI agonist, primary screen (AID 2013); type: functional;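 further: antagonist potency measured as reduced agonist-driven arrestin aggregation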
G-protein coupled receptor 55, sequence (Q9Y2T6 whole entry): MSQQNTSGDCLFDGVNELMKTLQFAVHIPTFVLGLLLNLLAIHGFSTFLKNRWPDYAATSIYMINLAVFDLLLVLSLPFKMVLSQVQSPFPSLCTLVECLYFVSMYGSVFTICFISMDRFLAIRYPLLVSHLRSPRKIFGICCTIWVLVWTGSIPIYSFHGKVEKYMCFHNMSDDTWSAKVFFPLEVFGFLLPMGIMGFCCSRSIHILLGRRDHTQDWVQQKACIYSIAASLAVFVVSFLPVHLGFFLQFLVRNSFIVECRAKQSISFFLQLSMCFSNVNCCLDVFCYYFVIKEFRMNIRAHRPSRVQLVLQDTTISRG

BJ [7] = assay: BJ-TERT-LT-ST fibroblast viability loss – cell-based, RAS-independent, luminescence, dose response (AID 1935); type: functional; conditions: Homo sapiens;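 further: BJ fibroblasts immortalized with TERT plus LT and ST oncogenes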
[8] = DRD fibroblast viability loss – cell-based, non-viral oncogenic, luminescence, dose response (AID 1934); type: functional; conditions: Homo sapiens
[9] = biological target: T1, Heat shock protein HSP 90-alpha (Homo sapiens, UniProt P07900); type: functional, organism-based
BJ [10] = assay: growth inhibition of engineered Ras-driven BJ cells – cell-based, alamar blue fluorescence, cherrypicked samples, dose response (AID 2631); type: functional; conditions: Homo sapiens;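 further: confirmatory dose-response assay in RAS-dependent BJ fibroblasts engineered with TERT, LT and ST, with cytotoxicity read by fluorescence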
[11] = luciferase reporter signal reduction – luminescence, H4-C neuroglioblastoma cells, dose response (AID 2458); type: functional, cell-based;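 further: H4 neuroglioblastoma cells stably carrying a luciferase reporter gene fusion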
cells = type: functional, cell-based
[12] = biological target: T2, Heat shock factor protein 1 (Mus musculus, UniProt P38532); assay: decrease of HSF1-responsive luciferase luminescence – cell-based, NIH3T3, dose retest, confirmation (AID 2382); type: functional;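 further: NIH3T3 fibroblasts with HSF1-driven luciferase reporter stressed by proteasome inhibitor MG132; luminescence from HSF1-driven luciferase expression after 8 hours of MG132 stress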
T2 sequence (P38532 whole entry): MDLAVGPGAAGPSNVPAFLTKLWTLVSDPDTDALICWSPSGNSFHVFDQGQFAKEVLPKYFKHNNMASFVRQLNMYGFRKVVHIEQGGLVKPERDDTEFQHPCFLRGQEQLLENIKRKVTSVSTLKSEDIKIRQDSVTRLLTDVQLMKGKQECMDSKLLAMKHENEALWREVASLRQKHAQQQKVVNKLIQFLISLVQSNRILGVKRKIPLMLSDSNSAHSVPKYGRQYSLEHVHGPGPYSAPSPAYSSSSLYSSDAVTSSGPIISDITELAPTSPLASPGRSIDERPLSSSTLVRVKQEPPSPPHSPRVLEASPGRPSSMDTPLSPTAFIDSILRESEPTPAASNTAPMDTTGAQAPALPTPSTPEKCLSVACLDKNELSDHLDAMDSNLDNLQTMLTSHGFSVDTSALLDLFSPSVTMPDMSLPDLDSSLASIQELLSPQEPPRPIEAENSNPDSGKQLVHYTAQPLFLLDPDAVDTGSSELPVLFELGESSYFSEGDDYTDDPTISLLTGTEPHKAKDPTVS

[13] = biological target: T1, Heat shock protein HSP 90-alpha; assay: Luminescence-based dose response biochemical high throughput screening assay for inhibitors of the Heat Shock Protein 90 (HSP90). [Related pubchem assays: 1831 (Summary AID.), 1846 (Confirmation screen.), 1789 (Primary screen.)]
[14] = alpha-synuclein stem-loop translation blockers – luminescence, H4 neuroglioblastoma cells, dose confirmation, confirmation (AID 2454); type: functional, cell-based;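 further: H4 neuroglioblastoma cells carrying an alpha-synuclein 5'UTR luciferase reporter; potency for inhibition of the luciferase signal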
Jurkat = assay: blockers of NF-kB activation in T cells – Jurkat, luciferase reporter, luminescence, B- and T-cell, dose response (AID 489004); type: functional, cell-based; conditions: Homo sapiens;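 further: NF-kB luciferase reporter Jurkat cells stimulated with PMA plus ionomycin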
[15] = HEK-293T viability loss, compound-treated – cell-based, uHTS hits, cytotoxicity control for B/T-cell NF-kB inhibitor project, dose response (AID 489019); type: functional;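 further: IC50 reflects cytotoxicity as loss of cell viability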
[16] = biological target: Luciferin 4-monooxygenase (Photuris pensylvanica, UniProt Q27757); assay: inhibition of Cell Titer Glo luciferase signal – biochemical, luminescence, cherry-picks, counter-screen for HSF-1 reporter inhibitor project, dose response (AID 588847)
Luciferin 4-monooxygenase, sequence (Q27757 whole entry): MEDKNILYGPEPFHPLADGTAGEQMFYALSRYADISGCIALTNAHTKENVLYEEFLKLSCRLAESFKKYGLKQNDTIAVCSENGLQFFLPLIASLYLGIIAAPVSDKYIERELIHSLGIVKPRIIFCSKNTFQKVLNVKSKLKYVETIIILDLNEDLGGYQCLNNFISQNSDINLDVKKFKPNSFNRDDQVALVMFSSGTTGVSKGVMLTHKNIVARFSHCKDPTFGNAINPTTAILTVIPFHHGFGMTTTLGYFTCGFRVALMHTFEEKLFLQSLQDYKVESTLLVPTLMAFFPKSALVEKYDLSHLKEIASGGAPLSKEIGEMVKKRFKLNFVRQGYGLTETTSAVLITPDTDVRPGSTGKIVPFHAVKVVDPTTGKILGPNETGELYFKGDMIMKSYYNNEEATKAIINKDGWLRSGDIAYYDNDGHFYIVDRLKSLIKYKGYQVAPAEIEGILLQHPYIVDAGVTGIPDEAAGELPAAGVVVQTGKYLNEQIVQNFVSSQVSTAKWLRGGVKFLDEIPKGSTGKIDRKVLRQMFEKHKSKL

[17] = reduction of Shn3 3'UTR-driven luciferase in osteoblasts – cell-based, Clone20 osteoblasts, firefly luciferase, cherry-picked, dose response (AID 624132); type: functional;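 further: firefly luciferase luminescence from reporter carrying the Shn3 3'UTR in osteoblasts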
[18] = blockers of HIV-1 envelope-mediated cell-cell fusion – cherry-pick, dose response (AID 652057); type: functional, cell-based
[19] = blockers of HIV-1 ZM109 envelope-driven cell-cell fusion – HeLa effector, CEM target cells, luciferase, cherry-pick, dose response (AID 652058); type: functional, cell-based;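 further: luciferase signal from HIV-1 Env mediated cell-cell fusion of effector and target cells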
[20] = off-target signal loss in HeLa-CEM21 co-culture – HeLa F-luc CTL cells, cherry-picked, counter-screen for HIV-1 Env fusion inhibitor project, dose response (AID 652040); type: functional, cell-based;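 further: potency for signal decrease marking cytotoxic or nonspecific inhibition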
[21] = HIV-1 AD8 envelope cell-cell fusion blockers – cherry-pick, dose response (AID 652062); type: functional, cell-based;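 further: luciferase signal from cell-cell fusion driven by HIV-1 clade B AD8 Env; potency is for inhibitors of fusion seen as a drop in luminescence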
[22] = Shn3 3'UTR reporter signal decrease – cell-based, Clone20 osteoblasts, firefly luciferase, cherry-pick, set 2, Schnurri-3 inhibitor project, dose response (AID 720490); type: functional;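 further: actives lower the luminescence signal as inhibitors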
[23] = EF1alpha-driven Renilla reporter with control 3'UTR suppression – Clone20-Shn3RL cells, dual-Glo, cherry-pick, set 2, counter-screen for Shn3 3'UTR targeting project, dose response (AID 720724); type: functional, cell-based; conditions: Dual-Go Shn3RL
[24] = blockers of bursicon-stimulated LGR2 cAMP reporter – cell-based, HEK293, CRE-luciferase reporter, cherry pick, set 2, dose response (AID 743343); type: functional;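 further: transfected cells were stimulated with diluted bursicon conditioned medium after compound addition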
[25] = blockade of melanocortin 4 receptor signaling – cell-based, plate reader, cherry pick, counter-screen for LGR2 antagonist project, dose response (AID 743444); type: functional;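 further: transfected HEK 293 cells stimulated with alpha-MSH peptide; potency of inhibitors of the alpha-MSH evoked signal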
[26] = biological target: Serine/threonine-protein phosphatase PP1-alpha catalytic subunit (Homo sapiens, UniProt P62136); assay: inhibition of protein phosphatase 1 activity – biochemical, fluorescence, dose response (AID 2394)
Serine/threonine-protein phosphatase PP1-alpha catalytic subunit, sequence (P62136 whole entry): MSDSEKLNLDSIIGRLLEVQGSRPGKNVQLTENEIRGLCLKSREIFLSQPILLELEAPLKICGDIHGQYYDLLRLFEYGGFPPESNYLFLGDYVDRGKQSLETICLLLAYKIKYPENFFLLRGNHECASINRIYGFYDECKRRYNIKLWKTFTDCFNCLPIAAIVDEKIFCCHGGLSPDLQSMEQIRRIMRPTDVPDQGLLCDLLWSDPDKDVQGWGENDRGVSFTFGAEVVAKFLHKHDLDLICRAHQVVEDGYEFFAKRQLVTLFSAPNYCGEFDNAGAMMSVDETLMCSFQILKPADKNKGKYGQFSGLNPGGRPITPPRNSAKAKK

[27] = system: Streptococcus sp. 'group A'; assay: Streptococcus pyogenes SK(-)GAS viability under kanamycin – luminescence, BacTiterGlo, confirmation, counter-screen for streptokinase expression inhibitor project, dose response (AID 1900); type: functional, organism-based
Streptokinase A = biological target: T3, Streptokinase A (Streptococcus pyogenes serotype M1, UniProt P10520); assay: viability-normalized secreted streptokinase activity reduction – plasminogen activation absorbance, OD405, dose response (AID 1914); type: functional, Streptococcus pyogenes M1 GAS;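 further: secreted streptokinase activity via plasminogen activation per viability signal from cell pellet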
T3 sequence (P10520 whole entry): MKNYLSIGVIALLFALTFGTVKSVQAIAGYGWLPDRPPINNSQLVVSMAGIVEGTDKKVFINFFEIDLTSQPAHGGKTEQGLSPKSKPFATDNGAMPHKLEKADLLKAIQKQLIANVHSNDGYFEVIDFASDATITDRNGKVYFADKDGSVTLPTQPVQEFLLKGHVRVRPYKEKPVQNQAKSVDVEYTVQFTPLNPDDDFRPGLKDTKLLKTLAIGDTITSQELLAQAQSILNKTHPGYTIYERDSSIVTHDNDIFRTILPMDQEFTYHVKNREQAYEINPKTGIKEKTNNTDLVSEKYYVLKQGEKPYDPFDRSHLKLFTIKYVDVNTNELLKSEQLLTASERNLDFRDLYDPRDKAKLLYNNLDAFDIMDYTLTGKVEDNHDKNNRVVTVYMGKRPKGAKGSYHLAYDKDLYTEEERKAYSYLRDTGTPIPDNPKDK

[28] = Trypanosoma cruzi growth suppression in host cells – NIH3T3 host cells, beta-gal luminescence, confirmation (AID 2044); type: functional, cell-based;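 further: intracellular parasites grown in NIH/3T3 mouse fibroblasts as host cells; luminescent beta-galactosidase reporter signal from transgenic T. cruzi replicating inside host cells; inhibitors lower the luminescence signal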
[29] = biological target: Protein-tyrosine kinase 2-beta (Homo sapiens, UniProt Q14289);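 further: potency of inhibitors of PYK2 kinase phosphorylation of poly-GT substrate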
Protein-tyrosine kinase 2-beta, sequence (Q14289 whole entry): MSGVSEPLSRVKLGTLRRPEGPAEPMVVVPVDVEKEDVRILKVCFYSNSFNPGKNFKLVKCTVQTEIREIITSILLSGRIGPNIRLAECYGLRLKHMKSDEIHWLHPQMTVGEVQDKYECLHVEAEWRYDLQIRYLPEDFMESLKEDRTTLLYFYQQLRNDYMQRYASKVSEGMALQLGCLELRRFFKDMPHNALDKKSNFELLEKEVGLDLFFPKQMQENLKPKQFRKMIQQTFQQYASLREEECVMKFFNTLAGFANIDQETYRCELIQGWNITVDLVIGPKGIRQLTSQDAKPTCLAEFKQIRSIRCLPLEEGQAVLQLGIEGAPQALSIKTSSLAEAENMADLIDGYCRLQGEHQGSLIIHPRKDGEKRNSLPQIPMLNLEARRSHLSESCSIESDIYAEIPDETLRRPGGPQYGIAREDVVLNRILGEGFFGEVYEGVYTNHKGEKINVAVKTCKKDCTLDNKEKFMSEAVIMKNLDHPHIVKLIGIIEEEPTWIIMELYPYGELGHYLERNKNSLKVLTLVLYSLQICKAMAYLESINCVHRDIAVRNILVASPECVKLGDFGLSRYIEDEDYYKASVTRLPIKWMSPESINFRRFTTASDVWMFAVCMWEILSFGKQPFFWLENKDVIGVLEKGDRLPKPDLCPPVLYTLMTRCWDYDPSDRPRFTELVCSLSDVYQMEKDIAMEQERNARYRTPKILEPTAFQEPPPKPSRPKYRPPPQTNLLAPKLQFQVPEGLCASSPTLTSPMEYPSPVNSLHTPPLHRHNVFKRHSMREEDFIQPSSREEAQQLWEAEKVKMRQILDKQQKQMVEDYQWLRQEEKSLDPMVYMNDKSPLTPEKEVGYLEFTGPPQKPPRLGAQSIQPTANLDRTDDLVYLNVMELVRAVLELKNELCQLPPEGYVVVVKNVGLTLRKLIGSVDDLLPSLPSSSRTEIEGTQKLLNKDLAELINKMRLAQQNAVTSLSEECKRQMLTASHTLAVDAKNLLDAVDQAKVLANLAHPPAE

[30] = biological target: Serine/threonine-protein phosphatase (Homo sapiens, UniProt Q9BPW0); assay: inhibition of protein phosphatase 5 activity – biochemical, fluorescence, dose response (AID 2395)
Serine/threonine-protein phosphatase, sequence (Q9BPW0 whole entry): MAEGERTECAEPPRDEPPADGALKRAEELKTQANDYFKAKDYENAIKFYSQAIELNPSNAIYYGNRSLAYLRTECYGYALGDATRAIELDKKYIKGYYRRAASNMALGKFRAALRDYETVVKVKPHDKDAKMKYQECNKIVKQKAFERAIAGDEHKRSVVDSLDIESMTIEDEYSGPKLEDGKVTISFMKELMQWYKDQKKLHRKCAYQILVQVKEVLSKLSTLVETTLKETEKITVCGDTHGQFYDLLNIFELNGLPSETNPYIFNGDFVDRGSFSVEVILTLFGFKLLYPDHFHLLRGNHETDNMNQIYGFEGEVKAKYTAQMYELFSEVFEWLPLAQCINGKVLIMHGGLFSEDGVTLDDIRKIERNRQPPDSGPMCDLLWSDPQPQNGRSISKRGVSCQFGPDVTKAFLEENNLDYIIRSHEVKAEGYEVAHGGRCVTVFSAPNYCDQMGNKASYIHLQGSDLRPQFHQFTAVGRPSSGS

[31] = NIH3T3 cell viability loss – ATP luminescence, mouse fibroblasts, counter-screen, dose response (AID 2010); type: functional, cell-based;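 further: cells exposed to compound for about 90 hours before reading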
[32] = mitochondrial function rescue without frataxin homolog – Friedreich's ataxia, plus single-dose screen, dose response (AID 1465); type: functional;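 further: yeast depleted of Yfh1p frataxin homolog grown on glycerol needing respiration; WST-1 tetrazolium dye reduction as measure of cellular dehydrogenase metabolic activity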
Streptococcus = assay: GAS UMAA2166 growth inhibition – luminescence, BacTiterGlo, counter-screen for streptokinase expression inhibitor project, dose response (AID 1915); type: functional, organism-based;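 further: potency for reduction of bacterial viability or growth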
[33] = biological target: T4, Apoptotic protease-activating factor 1 (Homo sapiens, UniProt O14727); type: functional
T4 sequence (O14727 whole entry): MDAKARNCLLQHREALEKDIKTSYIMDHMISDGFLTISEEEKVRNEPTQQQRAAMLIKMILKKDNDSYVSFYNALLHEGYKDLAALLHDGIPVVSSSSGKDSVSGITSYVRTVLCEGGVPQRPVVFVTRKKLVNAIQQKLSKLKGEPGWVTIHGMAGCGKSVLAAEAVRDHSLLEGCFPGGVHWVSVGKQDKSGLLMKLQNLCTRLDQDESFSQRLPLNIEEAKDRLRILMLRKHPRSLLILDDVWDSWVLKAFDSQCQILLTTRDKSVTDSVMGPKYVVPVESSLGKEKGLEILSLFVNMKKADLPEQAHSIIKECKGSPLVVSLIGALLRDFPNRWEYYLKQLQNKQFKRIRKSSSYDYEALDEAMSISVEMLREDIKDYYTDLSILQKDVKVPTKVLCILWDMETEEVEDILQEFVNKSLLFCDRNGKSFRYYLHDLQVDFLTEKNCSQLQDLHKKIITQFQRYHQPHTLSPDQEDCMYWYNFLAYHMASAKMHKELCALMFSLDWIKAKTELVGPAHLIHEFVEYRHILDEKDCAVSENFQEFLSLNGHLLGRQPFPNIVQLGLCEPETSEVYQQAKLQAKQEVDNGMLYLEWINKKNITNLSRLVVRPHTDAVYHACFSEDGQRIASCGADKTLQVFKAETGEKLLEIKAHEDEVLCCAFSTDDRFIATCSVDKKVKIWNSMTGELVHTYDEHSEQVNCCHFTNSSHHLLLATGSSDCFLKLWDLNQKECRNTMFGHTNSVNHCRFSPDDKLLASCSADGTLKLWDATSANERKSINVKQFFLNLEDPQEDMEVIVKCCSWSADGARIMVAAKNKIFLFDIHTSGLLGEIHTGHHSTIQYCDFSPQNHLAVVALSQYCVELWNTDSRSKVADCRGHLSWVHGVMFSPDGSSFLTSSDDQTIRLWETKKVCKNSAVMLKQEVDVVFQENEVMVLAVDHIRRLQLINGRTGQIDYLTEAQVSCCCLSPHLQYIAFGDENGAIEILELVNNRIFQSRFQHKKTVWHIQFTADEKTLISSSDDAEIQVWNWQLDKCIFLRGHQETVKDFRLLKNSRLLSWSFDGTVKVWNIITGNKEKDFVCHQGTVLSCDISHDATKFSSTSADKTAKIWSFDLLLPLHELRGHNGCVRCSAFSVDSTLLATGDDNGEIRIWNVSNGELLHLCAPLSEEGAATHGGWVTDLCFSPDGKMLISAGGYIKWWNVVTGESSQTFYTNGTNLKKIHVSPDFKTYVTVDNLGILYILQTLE

INS1 = assay: INS-1E survival protection against cytokine death – cell-based, luminescence, retest, dose response (AID 449756); type: functional; conditions: Rattus norvegicus;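 further: cell death triggered by IL-1 beta plus TNF-alpha plus IFN-gamma mixture; protective hits raise ATP signal compared with cytokine alone wells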
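Wherever CC50 is given: cells exposed to compound for 16 hours before readout.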

For `CCOC(=O)/C(=C\c1cccnc1)C(=O)c1cc(C(C)=O)c(Nc2ccccc2)s1`, the EC50 [1] was > 120 µM (not active), the CC50 (HeLa) was 2.91 µM (active) and the EC50 (BJ [2]) was 2.38 µM (inconclusive). For the same molecule, the EC50 [3] was 8.03 µM (active), the EC50 [4] was 8.02 µM (active) and the EC50 (BJ [5]) was 7.78 µM (inconclusive). The IC50 [6] was 3.09 µM (active), the EC50 (BJ [7]) was 6.68 µM (inconclusive) and the EC50 [8] was 2.34 µM (active). The AC50 [9] was 2.18 µM (active) and the EC50 (BJ [10]) was 503 nM (active).

With `O=C(CN1C(=O)c2ccccc2S1(=O)=O)c1ccc2c(c1)OCCCO2` the EC50 [1] was < 0.1 µM (active), the EC50 [11] was 15 nM (active) and the EC50 (cells) was 21 nM (active). For the same molecule, the EC50 [3] was < 0.1 µM (active), the EC50 [12] was < 160 nM (active) and the EC50 [4] was < 0.1 µM (active). For the same molecule, the IC50 [13] was 816 nM (active), the EC50 [14] was 16 nM (active) and the IC50 (Jurkat) was < 160 nM (active). For the same molecule, the IC50 [15] was > 80 µM (inactive), the AC50 [16] was > 52 µM (inactive) and the AC50 [17] was 262 nM (active). The AC50 [18] was < 260 nM (active), the AC50 [19] was 725 nM (active) and the AC50 [20] was < 260 nM (active). For the same molecule, the AC50 [21] was < 260 nM (active), the AC50 [22] was 631 nM (active) and the AC50 [23] was 50.3 µM (active). For the same molecule, the AC50 [24] was < 68 nM (active) and the AC50 [25] was 69.5 nM (active).

With `Cc1ccc(Cl)cc1NC1=C/C(=N\S(=O)(=O)c2cccs2)c2ccccc2C1=O` the IC50 [26] was 38.9 µM (not active), the EC50 [27] was 427 nM (active) and the EC50 (Streptokinase A) was > 150 µM (not active). The EC50 [28] was 1.6 µM (active), the IC50 [29] was > 69.5 µM (not active) and the IC50 [30] was 2.49 µM (active). The EC50 [31] was 3.19 µM (active), the EC50 [32] was > 100 µM (active) and the EC50 (Streptococcus) was 2.98 µM (active). The IC50 [33] was 1.85 µM (active) and the AC50 (INS1) was 608 nM (active).
